Values of other authors, collected in PMC7111419 (European Journal of Medicinal Chemistry, 2019).
Read-outs that look alike come from different tables or passages of the source.

What was measured:
rat neutrophils = details: read-out: IC50, βGLU release; cited from earlier work
E. coli cells = details: 100 μM; cited from earlier work
βGLU = details: cited from earlier work
male albino Wistar rats = details: 7.5 mg/kg body weight/day intragastric, 7 days; cited from earlier work
female Wistar rats = details: i.p. pre or cotreatment, 3 mg/ml, 10 mg/ml or 10 mg/0.5 ml, 6 days; cited from earlier work
SENCAR mice = details: cited from earlier work
human liver-derived βGLU = details: 1 mM; cited from earlier work
βGLU in breast milk = details: 10 μM; cited from earlier work
salivary βGLU = details: 16 subjects with aggressive periodontitis; cited from earlier work

C[C@@H]1C(=O)O[C@H]2[C@H](O)[C@@]34[C@H]5C[C@@H](C(C)(C)C)[C@]36[C@@H](OC(=O)[C@@H]6O)O[C@@]4(C(=O)O5)[C@@]12O [ginkgolide B]
IC50 (rat neutrophils): 6.63 µM

O=C(Cn1c(-c2ccccn2)nc2ccccc21)c1ccc(Cl)cc1 [Compound 4-Cl]
cytotoxicity to E. coli cells (E. coli cells): cytotoxicity | IC50 (βGLU): 32.1 µM

Cc1ccc(C(C)C)c(O)c1 [Compound 54, thymol]
activities of lysosomal enzymes (βGLU, β-galactosidase, cathepsin B and D) in serum and heart (male albino Wistar rats): potently inhibited to near-normal

O=C(O)[C@@H](O)[C@H]1OC(=O)[C@H](O)[C@H]1O [Compound 5, D-saccharic acid-1,4-lactone]
IC50 (βGLU; value recurrent in literature): ~40 µM | severity of CPT-11 induced small-intestine mucosal damage (female Wistar rats): reduced the severity | reduction of DMBA-induced oxidative DNA damage and mutations in codon 61 of Ha-ras gene (SENCAR mice): up to 78% | inhibition of hydrolytic action on quercetin glucuronides (human liver-derived βGLU): completely inhibited | inhibition of βGLU in breast milk (βGLU in breast milk): over 90%

doxycycline hyclate
effect on salivary βGLU activity (salivary βGLU): inefficient
